{"source": "paper PMC6962712", "about": "“Glucose-6-Phosphate Upregulates Txnip Expression by Interacting With MondoA” (Frontiers in Molecular Biosciences, 2020)", "target": "T1, MondoA/Mlx (Homo sapiens, UniProt Q9HAP2)", "T1 construct": "gene MLXIP; endogenous full-length MondoA/Mlx heterodimer in nuclear extract of Bcap37 cells, not purified; with Max-like protein X", "T1 sequence (Q9HAP2 2-919)": "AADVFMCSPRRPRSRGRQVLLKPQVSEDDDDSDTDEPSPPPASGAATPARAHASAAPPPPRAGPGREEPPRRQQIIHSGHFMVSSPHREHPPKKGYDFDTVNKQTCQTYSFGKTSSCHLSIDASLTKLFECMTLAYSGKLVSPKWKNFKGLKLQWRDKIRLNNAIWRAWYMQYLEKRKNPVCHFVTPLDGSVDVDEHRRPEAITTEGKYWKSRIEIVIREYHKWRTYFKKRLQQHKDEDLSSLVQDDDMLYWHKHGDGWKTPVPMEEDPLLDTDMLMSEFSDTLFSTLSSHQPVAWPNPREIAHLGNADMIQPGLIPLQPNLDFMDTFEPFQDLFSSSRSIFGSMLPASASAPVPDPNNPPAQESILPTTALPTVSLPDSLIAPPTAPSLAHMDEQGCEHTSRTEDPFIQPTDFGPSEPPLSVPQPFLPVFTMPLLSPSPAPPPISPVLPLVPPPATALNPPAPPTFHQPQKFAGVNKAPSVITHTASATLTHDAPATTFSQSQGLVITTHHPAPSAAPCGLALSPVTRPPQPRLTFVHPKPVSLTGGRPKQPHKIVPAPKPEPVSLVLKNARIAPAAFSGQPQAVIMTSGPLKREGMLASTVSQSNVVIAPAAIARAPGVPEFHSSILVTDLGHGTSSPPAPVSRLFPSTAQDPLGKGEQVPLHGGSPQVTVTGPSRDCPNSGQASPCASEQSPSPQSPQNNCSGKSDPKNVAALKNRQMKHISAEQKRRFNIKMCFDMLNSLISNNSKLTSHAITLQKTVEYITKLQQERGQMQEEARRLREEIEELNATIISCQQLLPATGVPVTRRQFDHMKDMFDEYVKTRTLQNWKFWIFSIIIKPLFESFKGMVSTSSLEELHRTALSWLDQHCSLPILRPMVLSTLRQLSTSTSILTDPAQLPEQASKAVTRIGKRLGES", "T1 sequence (Q9UH92 1-298 partner)": "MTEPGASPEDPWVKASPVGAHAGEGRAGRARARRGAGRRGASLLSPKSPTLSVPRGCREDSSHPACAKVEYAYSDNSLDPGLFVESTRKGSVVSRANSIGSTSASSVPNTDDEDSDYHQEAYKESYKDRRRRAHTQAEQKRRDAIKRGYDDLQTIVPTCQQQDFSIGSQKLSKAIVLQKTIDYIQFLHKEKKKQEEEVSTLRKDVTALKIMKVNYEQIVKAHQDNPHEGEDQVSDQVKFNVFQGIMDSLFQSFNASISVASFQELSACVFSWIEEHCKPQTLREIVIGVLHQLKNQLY", "experiment": "EMSA, biotinylated Txnip ChoRE probe", "assay_type": "biochemical", "details": "Bcap37 nuclear extract; G6PNa2 added in vitro (e.g. 0.05 and 0.25 mM); activator of promoter binding; indirect read-out, not a direct binding test"}
{"compound": "O=P(O)(O)OC[C@H]1OC(O)[C@H](O)[C@@H](O)[C@@H]1O", "note": "(stereo partly shown) [G6PNa2]", "values": [{"measurement": "EMSA, biotinylated Txnip ChoRE probe", "result": "binding of MondoA to the promoter probe was significantly promoted by the activation of G6PNa2"}]}
